{"source": "patent US7442706B2", "about": "“Methods for treating sarcopenia with a growth hormone secretagogue” (priority 2006, dated 2008)", "key": {"GH": {"system": "GH", "settings": "healthy older men and women; 25 mg p.o. daily; cited from earlier work"}, "[1]": {"assay": "Isokinetic muscle strength (Cybex II), knee and shoulder flexion and extension", "assay_type": "in vivo, human", "settings": "12 months", "method": "Isokinetic Muscle Strength. Concentric force during flexion and extension of the knee and shoulder were determined using an isokinetic dynamometer Cybex II (CSM, Inc., Boston, Mass.). (11) Six repetitions of maximal effort over 90 degrees at 60 degrees/second were performed with the mean of the last 5 repetitions computed by proprietary software. Total work (Newton metres) was calculated by multiplying the mean per repetition by 5. Correction for Height and Gender. All strength and function measurements were analyzed per kg of skeletal muscle (ASM). Baseline arm ASM and leg ASM were used for shoulder and knee strength, respectively; baseline TASM (sum of arms and legs) was used for the function tests."}, "[2]": {"assay": "Body water (TBW by deuterium dilution, ECW by bromide dilution, ICW by difference)", "assay_type": "in vivo, human", "settings": "12 months; expressed per kg FFM", "method": "Body Water. Total body water (TBW) was measured using the deuterium oxide (D2O) dilution technique ((8) and extracellular water (ECW) by bromide dilution (10). Intracellular water (ICW) was assessed as the difference between TBW and ECW. To determine the relative relationships of total-, extra- and intra-cellular water, each component (in kg) was expressed per kg of FFM at each time point."}}, "data": [{"smiles": "CC(C)(N)C(=O)N[C@H](COCc1ccccc1)C(=O)N1CCC2(CC1)CN(S(C)(=O)=O)c1ccccc12.CS(=O)(=O)O", "note": "[MK-677, N-[1(R)-[(1,2-dihydro-1-methanesulfonylspiro[3H-indole-3,4′-piperidin]-1′-yl)carbonyl]-2-(phenylmethyloxy)ethyl]-2-amino-2-methylpropanamide methanesulfonate]", "values": [{"measurement": "IGF-I and pulsatile GH release, previously reported", "setting": "GH", "result": "enhanced IGF-I and pulsatile GH release into the young adult normal range"}, {"measurement": "shoulder flexion total work vs. placebo", "setting": "[1]", "result": "trend for prevention of this decline"}, {"measurement": "total work in knee extension or flexion or in shoulder extension, between groups", "setting": "[1]", "result": "no change"}, {"measurement": "changes in TBW, ECW or ICW vs. placebo", "setting": "[2]", "result": "no significant changes"}]}]}
